Values quoted from earlier work in PMC9804730 (Diabetes, Obesity & Metabolism, 2022).

Tests used:
[1] = N- and C-terminal degradation

In the case of “(D‐Arg^35)‐sea lamprey PYY (1–36) [SL‐PYY]”, the enzymatic stability [1] is listed as “N‐ and C‐terminally enzyme‐resistant”, the “effect on insulin secretion” value is listed as “insulinostatic” and the “effect on blood glucose levels in the acute setting” value (acute setting) is listed as “does not affect”.
